From ChEMBL document CHEMBL1201862, “PubChem BioAssay data set” (2004)
The source made the active and inactive calls.

Tests used:
[1] = activation of miR-122 Renilla sensor silencing – cell-based, Huh7 psiCHECK-miR122, Renilla luciferase, cherry-picked, dose response (AID 651956); type: functional;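 note: huh7 hepatoma cells stably carrying a psiCHECK-2 miR-122 sensor plasmid; renilla luciferase signal reporting endogenous miR-122 activity after 48 h compound exposure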
[2] = general mammalian cell viability loss – inhibitor set, cherry-pick, set 2, cytotoxicity control for miR-122 modulator project, dose response (AID 720697); type: functional, cell-based
[3] = general mammalian cell viability loss – activator set, cherry-pick, cytotoxicity control for miR-122 modulator project, dose response (AID 720690); type: functional, cell-based;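 note: HEK293T human cells scored for general mammalian cytotoxicity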
[4] = biological target: T1, Replicative DNA helicase DnaB (Mycobacterium tuberculosis, UniProt P9WMR3); test: DnaB intein splicing inhibitors, dose response, biochemical, cell-free fluorescence (AID 449749); type: functional
T1 sequence (P9WMR3 whole entry): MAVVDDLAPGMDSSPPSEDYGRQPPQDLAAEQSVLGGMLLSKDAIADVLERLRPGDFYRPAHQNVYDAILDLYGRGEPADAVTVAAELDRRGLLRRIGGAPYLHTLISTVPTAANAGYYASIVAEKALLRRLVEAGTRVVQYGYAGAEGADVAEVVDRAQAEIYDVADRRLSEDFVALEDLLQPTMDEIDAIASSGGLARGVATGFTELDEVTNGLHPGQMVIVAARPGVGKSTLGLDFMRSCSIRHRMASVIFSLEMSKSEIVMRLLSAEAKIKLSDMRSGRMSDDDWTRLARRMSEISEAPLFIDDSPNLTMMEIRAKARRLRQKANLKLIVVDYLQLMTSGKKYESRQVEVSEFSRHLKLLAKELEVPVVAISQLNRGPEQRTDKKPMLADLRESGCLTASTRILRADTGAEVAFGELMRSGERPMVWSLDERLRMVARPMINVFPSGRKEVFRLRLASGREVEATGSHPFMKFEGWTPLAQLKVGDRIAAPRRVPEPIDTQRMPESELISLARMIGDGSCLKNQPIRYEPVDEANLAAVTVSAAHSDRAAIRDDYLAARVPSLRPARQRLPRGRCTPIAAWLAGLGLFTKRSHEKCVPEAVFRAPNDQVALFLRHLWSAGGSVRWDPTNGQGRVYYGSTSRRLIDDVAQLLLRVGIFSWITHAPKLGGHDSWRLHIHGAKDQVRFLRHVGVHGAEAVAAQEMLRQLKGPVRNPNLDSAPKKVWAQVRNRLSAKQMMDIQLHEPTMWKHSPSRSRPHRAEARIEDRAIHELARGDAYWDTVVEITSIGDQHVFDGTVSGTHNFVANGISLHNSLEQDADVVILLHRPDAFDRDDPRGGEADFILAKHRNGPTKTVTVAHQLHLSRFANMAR

Protein RecA = biological target: T2, Protein RecA (Mycobacterium tuberculosis, UniProt P9WHJ3); test: Fluorescence Cell-Free Homogeneous Dose Retest to Identify Inhibitors of RecA-Intein Splicing Activity. [Related pubchem assays (depositor defined):AID2097, AID2223, AID489010, AID492950]; type: functional
T2 sequence (P9WHJ3 whole entry): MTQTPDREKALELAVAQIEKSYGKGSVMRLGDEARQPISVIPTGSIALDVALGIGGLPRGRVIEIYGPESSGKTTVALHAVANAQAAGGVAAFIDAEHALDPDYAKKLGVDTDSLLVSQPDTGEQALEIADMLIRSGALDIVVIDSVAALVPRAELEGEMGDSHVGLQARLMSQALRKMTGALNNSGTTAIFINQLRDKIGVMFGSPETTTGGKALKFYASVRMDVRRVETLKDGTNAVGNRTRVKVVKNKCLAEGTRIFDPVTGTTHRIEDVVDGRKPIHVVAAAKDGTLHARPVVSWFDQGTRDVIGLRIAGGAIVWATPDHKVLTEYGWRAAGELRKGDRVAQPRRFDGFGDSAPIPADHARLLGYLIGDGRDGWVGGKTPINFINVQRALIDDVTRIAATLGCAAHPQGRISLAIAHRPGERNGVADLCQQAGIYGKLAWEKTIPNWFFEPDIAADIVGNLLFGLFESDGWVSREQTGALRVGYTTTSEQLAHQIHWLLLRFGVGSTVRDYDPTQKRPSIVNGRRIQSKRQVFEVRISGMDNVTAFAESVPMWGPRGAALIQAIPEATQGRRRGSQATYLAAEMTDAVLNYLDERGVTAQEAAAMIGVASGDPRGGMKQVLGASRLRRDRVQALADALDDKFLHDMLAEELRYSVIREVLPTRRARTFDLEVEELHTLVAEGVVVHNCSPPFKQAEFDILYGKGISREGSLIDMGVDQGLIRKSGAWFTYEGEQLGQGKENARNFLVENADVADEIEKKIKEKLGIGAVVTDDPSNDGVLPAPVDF

[5] = biological target: T3, Sentrin-specific protease 8 (Homo sapiens, UniProt Q96LD8); type: functional
T3 sequence (Q96LD8 whole entry): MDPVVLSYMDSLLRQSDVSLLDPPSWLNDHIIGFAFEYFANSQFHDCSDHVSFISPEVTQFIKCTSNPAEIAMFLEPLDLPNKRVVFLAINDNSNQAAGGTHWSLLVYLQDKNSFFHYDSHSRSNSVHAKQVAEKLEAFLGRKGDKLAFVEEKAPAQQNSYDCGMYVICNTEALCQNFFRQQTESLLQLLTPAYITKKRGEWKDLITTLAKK

[6] = biological target: T3, Sentrin-specific protease 8; type: functional; remark: listed apart in the source
[7] = biological target: Fructose-bisphosphate aldolase (Mycobacterium tuberculosis, UniProt P9WQA3); test: Fluorescence-based biochemical high throughput dose response assay for inhibitors of the fructose-bisphosphate aldolase (FBA) of M. tuberculosis.; type: functional
Protein S100-A4 = Protein S100-A4 (Homo sapiens, UniProt P26447); test: human S100A4 peptide interaction inhibition curves – biochemical, fluorescence polarization, cherry-picked hits, dose response (AID 687001); type: functional
[8] = Trypanosoma cruzi growth suppression in host cells – NIH3T3 host cells, beta-gal luminescence, confirmation (AID 2044); type: functional, cell-based;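 note: intracellular parasites grown in NIH/3T3 mouse fibroblasts as host cells; luminescent beta-galactosidase reporter signal from transgenic T. cruzi replicating inside host cells; inhibitors lower the luminescence signal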
[9] = NIH3T3 cell viability loss – ATP luminescence, mouse fibroblasts, counter-screen, dose response (AID 2010); type: functional, cell-based;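 note: cells exposed to compound for about 90 hours before reading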
[10] = biological target: Botulinum neurotoxin type F (Clostridium botulinum, UniProt P30996); test: High-throughput multiplex microsphere dose response for inhibitors of toxin protease, specifically Botulinum neurotoxin light chain F protease, compounds from Cherry Pick 02.; type: functional; details: read-out: EC50_MICROM
[11] = biological target: T4, Long-chain-fatty-acid--AMP ligase FadD28 (Mycobacterium tuberculosis, UniProt P9WQ59); test: Fluorescence polarization aasay to screen for inhibitors that compete for the binding of FadD28 to a bisubstrate Measured in Biochemical System Using Plate Reader - 2147-01_Inhibitor_Dose_CherryPick_Activity.; type: functional, Mycobacterium tuberculosis H37Rv
T4 sequence (P9WQ59 whole entry): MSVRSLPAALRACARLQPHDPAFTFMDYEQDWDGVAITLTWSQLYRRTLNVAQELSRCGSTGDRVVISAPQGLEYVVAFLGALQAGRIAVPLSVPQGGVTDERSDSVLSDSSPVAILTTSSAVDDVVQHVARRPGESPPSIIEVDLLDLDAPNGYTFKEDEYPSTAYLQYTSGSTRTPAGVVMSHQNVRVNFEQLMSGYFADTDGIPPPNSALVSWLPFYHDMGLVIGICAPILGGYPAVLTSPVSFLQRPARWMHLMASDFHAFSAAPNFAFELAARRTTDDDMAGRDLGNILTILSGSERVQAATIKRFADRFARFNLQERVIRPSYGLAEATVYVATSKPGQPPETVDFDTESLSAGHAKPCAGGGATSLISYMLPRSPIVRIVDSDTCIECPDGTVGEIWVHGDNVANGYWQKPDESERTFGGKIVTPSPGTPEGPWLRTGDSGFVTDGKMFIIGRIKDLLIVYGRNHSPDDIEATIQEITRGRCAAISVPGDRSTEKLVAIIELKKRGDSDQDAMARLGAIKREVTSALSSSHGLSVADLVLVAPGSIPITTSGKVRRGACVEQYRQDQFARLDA

[12] = Luminescence Cell-Based Dose Retest to Confirm Inhibitors of Cancer Stem Cells. [Related pubchem assays (depositor defined):AID2717, AID2721]; type: functional; details: Homo sapiens
Cryptococcus neoformans = test: PubChem AID 686997; type: functional, organism-based
Beta-lactamase [13] = biological target: T5, Beta-lactamase (Salmonella choleraesuis (strain SC-B67), UniProt Q5J463); test: Epi-absorbance-based counterscreen for selective VIM-2 inhibitors: dose response biochemical high throughput screening assay to identify inhibitors of TEM-1 serine-beta-lactamase.
Beta-lactamase [14] = biological target: T6, Beta-lactamase (Pseudomonas aeruginosa, UniProt Q79MP6); test: inhibition of IMP-1 beta-lactamase activity – biochemical, epi-absorbance, selectivity assay for VIM-2 inhibitor project, dose response (AID 1920)
Beta-lactamase [15] = biological target: T6, Beta-lactamase; test: […] counterscreen for selective VIM-2 inhibitors: dose response biochemical high throughput screening assay to identify inhibitors of IMP-1 metallo-beta-lactamase.
[16] = biological target: FAD-linked sulfhydryl oxidase ALR (Homo sapiens, UniProt P55789); test: ALR-catalysed DTT oxidation blockers – biochemical, H2O2 detection, luminescence, cherry-pick, dose response (AID 493248)
[17] = biological target: T7, RNA-binding protein pos-1 (Caenorhabditis elegans, UniProt G5EF15); test: disruptors of C. elegans POS-1 RNA interaction – biochemical, fluorescence polarization, dose response (AID 1964);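 note: purified POS-1 fused to maltose binding protein made in E. coli; potency of compounds blocking POS-1 binding to fluorescent RNA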
T7 sequence (G5EF15 whole entry): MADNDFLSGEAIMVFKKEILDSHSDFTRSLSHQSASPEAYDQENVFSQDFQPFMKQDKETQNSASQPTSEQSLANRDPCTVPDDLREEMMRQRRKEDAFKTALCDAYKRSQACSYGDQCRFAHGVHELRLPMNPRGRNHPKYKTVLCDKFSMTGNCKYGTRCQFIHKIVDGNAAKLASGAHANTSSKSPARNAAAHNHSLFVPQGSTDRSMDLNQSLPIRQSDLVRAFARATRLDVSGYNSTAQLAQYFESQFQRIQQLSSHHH

[18] = biological target: T8, Zinc finger protein mex-5 (Caenorhabditis elegans, UniProt Q9XUB2); test: potency of MEX-5 RNA-binding blockers – biochemical, C. elegans, fluorescence polarization, dose response (AID 1960)
T8 sequence (Q9XUB2 whole entry): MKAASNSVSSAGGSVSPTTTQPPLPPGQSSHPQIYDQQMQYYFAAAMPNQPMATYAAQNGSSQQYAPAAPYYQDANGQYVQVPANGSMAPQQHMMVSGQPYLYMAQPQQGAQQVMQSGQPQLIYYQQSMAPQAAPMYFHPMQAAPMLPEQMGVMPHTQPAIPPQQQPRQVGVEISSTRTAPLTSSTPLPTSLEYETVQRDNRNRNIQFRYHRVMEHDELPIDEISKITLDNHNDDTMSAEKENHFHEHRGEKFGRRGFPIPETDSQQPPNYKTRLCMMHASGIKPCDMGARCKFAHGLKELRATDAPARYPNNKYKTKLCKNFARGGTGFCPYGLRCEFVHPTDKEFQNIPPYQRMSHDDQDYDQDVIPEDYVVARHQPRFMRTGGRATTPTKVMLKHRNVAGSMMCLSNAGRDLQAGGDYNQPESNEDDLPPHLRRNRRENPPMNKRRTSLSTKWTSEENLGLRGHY

[19] = biological target: T9, Sentrin-specific protease 1 (Homo sapiens, UniProt Q9P0U3); test: SENP1 catalytic domain blockers, concentration series – biochemical, kinetic FRET, dose response (AID 651697); type: functional; details: read-out: IC50_Mean
[20] = biological target: T9, Sentrin-specific protease 1; test: Dose response confirmation of small molecule inhibitors of the catalytic domain of the SUMO protease, SENP1 in a FRET assay.; type: functional; details: read-out: IC50_Mean
Vero = test: viability loss in Vero cells – cell-based, plate reader, cherry-pick samples, cytotoxicity control, dose response (AID 687020); type: functional; details: Chlorocebus sabaeus
Beta-lactamase [21] = biological target: T6, Beta-lactamase
Beta-lactamase [22] = biological target: T5, Beta-lactamase

T6 sequence (Q79MP6 whole entry): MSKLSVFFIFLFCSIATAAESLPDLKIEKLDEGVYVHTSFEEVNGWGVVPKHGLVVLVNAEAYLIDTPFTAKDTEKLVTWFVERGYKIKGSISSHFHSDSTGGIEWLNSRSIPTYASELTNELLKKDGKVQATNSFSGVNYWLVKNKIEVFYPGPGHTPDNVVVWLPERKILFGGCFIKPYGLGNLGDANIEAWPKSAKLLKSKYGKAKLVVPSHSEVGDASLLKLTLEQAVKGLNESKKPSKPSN
T9 sequence (Q9P0U3 whole entry, the tested form may be a part): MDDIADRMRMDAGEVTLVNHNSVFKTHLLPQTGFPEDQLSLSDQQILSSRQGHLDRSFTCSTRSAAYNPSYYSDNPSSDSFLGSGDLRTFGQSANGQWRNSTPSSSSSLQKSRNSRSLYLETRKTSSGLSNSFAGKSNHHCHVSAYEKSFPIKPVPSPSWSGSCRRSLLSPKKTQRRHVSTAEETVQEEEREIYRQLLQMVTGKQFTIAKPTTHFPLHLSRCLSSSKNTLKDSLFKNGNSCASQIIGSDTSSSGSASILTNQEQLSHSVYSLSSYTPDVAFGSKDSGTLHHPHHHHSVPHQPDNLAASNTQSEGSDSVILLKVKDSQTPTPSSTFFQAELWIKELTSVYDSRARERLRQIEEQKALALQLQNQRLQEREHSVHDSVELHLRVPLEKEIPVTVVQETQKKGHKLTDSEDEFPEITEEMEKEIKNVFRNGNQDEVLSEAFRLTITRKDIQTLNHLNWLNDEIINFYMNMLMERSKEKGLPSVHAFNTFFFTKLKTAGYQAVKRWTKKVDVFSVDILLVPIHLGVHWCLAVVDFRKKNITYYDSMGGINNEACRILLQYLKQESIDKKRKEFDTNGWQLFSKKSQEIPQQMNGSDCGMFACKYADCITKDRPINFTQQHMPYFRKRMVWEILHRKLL
T5 sequence (Q5J463 whole entry): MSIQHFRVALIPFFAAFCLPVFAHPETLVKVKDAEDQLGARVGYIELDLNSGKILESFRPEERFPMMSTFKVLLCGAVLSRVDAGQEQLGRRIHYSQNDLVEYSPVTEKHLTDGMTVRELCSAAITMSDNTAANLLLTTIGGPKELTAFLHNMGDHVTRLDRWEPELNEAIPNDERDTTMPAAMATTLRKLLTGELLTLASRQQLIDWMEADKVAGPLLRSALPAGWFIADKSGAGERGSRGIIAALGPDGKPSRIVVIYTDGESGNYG
Chain of Botulinum neurotoxin type F (P30996 1-436 limits assumed): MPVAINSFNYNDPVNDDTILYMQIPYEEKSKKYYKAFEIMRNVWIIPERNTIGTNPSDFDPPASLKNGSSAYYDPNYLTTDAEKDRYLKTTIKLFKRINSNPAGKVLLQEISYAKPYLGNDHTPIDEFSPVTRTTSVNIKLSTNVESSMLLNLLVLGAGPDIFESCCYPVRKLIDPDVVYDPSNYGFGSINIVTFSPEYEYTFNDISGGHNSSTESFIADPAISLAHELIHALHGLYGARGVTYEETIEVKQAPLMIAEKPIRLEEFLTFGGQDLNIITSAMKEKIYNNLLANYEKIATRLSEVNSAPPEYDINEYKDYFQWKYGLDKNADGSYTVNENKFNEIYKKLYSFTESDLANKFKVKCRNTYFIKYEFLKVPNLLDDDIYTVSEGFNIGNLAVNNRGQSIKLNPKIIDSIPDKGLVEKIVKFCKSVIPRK
Chain of FAD-linked sulfhydryl oxidase ALR (P55789 whole entry, the tested form may be a part): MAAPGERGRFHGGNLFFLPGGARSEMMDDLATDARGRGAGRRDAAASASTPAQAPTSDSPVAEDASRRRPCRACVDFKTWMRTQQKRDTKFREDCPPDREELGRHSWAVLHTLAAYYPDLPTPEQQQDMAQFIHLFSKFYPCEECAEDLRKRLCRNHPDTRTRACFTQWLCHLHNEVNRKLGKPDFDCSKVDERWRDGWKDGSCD
Chain of Fructose-bisphosphate aldolase (P9WQA3 whole entry): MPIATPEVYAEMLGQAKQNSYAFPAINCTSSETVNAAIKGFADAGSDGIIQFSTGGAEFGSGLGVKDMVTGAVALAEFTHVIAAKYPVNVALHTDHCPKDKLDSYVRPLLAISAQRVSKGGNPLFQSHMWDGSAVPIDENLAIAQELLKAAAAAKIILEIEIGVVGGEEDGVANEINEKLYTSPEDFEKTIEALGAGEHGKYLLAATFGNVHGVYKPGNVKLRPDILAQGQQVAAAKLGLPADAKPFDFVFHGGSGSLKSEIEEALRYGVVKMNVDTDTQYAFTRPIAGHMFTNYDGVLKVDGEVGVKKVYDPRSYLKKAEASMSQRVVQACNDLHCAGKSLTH
Chain of Protein S100-A4 (P26447 whole entry): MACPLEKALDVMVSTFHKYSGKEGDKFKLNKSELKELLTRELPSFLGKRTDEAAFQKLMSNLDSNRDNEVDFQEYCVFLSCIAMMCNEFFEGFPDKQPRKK

Q: For C[C@@H]1CN([C@H](C)CO)C(=O)c2cc(NC(=O)Nc3cccc4ccccc34)ccc2O[C@@H](C)CCCCO[C@@H]1CN(C)Cc1ccc2c(c1)OCO2, which AC50 [1] is on record?
A: 9.62 µM (active)

Q: And the AC50 [2]?
A: < 0.195 µM (active)

Q: What about the AC50 [3] of the same compound?
A: 22 µM (active)

Q: For COc1cc(C(c2c(C)n[nH]c2O)c2c(C)n[nH]c2O)ccc1OS(=O)(=O)c1ccccc1, which AC50 [4] is on record?
A: 0.402 µM (active)

Q: What about the EC50 (Protein RecA) of the same compound?
A: 0.217 µM (active)

Q: And the IC50 [5]?
A: 45.2 µM (active)

Q: And the IC50 [6]?
A: 72.9 µM (inactive)

Q: For Cc1ccc2c(C)cc[n+](CCCS(=O)(=O)[O-])c2c1, which IC50 [7] is on record?
A: 5.92 µM (active)

Q: With COc1cccc2c1C(=O)c1c(O)c3c(c(O)c1C2=O)CC(O)(C(C)=O)CC3OC1CC(O)C(O)C(C)O1 (stereo unspecified) as the compound, how does the AC50 (Protein S100-A4) read?
A: 0.395 µM (active)

Q: Which EC50 [8] does the source give for CCc1cccc2c(C(=O)COC(=O)c3ccc(O)cc3)c[nH]c12 here?
A: 2.89 µM (active)

Q: What about the EC50 [9] of the same compound?
A: 9.37 µM (active)

Q: What about the EC50 [10] of the same compound?
A: > 20 µM (inactive)

Q: And the AC50 [11]?
A: 26.2 µM (active)

Q: Which AC50 [12] does the source give for COc1ccc(C(=O)NC(=S)Nc2ccccc2N2CCCCC2)cc1[N+](=O)[O-] here?
A: 0.549 µM (active)

Q: What about the AC50 (Cryptococcus neoformans) of the same compound?
A: > 70 µM (inactive)

Q: Which results are given for COc1cccc(-n2c(S)nnc2CNC(=O)OC(C)(C)C)c1?
A: IC50 (Beta-lactamase [13]): > 59.6 µM (inactive); IC50 (Beta-lactamase [14]): > 59.6 µM (inactive); IC50 (Beta-lactamase [15]): > 59.6 µM (inactive); AC50 [16]: 12.1 µM (active)

Q: With COc1ccc2c(c1)c1nc3ccccc3nc1n2CCn1c(=O)oc2ccccc21 as the compound, how does the EC50 [17] read?
A: > 300 µM (inconclusive)

Q: And the EC50 [18]?
A: > 300 µM (inconclusive)

Q: What about the IC50 [19] of the same compound?
A: 38.6 µM (inactive)

Q: And the IC50 [20]?
A: 20.9 µM (inactive)

Q: Which AC50 (Vero) does the source give for CCCCNC(=O)O[C@H]1C[C@@H]2CCN3C(=O)CCC[C@H]([C@H]1Cc1ccccc1)[C@H]23 here?
A: 38.6 µM (active)

Q: For CCc1cc(=O)oc2cc(C)c(CN3CCCC3)c(O)c12, which IC50 (Beta-lactamase [21]) is on record?
A: > 59.6 µM (inactive)

Q: What about the IC50 (Beta-lactamase [22]) of the same compound?
A: > 59.6 µM (inactive)
